What was measured:
[1] = tested on: replicative senescent vascular endothelial cells (HUVEC); test: CCK-8 cell survival, replicative senescent HUVEC; format: cell-based, human; conditions: according to concentration of salinomycin; FIG. 4C
Experimental: (§1) After dispensing 2×10^5 cells in a 100 mm culture dish, they were cultured in a 37° C., 5% CO2 incubator. When the cells grew to 80-90% in the culture dish, the cells were removed by treatment with trypsin-EDTA, and the number of cells was measured, and the cell population doubling time (PDT) was measured.
(§2) By successively subculturing the cells in the same process as described above, replication aging was induced. PDT of young fibroblasts was 36 hours, PDT of replicative senescent fibroblasts was 12 days, PDT of young vascular endothelial cells was 24 hours, and PDT of replicative senescent vascular endothelial cells was 7 days.
After each sample was dissolved in DMSO, young cells, replicative senescent cells and senescent cells in which premature aging was induced by treating with doxorubicin were treated with 100 nM salinomycin, 100 nM rapamycin, 100 nM ABT263. […]
Young cells (1×10^3 cells/well) or senescent cells (2×10^3 cells/well) were dispensed into a 96-well plate, and cultured overnight in a 37° C., 5% CO2 incubator. […] Then, the absorbance was measured at 450 nm using a Microplate reader.
The degree of cell survival was expressed as a relative value for the absorbance of the control group treated with only DMSO as 100%.

[2] = tested on: replicative senescent human fibroblasts (HDF); test: Western blot of p53 and p16, replicative senescent human fibroblasts; format: cell-based; conditions: FIG. 2C
Experimental: as §1, §2
After dispensing the cells into a 60 mm culture dish, the cells were cultured overnight in an incubator at 37° C. and 5% CO2. After treatment with salinomycin, ABT263 and rapamycin, it was incubated for 3 days in a 37° C., 5% CO2 incubator. […]
The lysed cells were transferred to a 1.5 ml tube, pipetted 3-4 times, and then left on ice for 20 minutes. After centrifugation at 12,000 rpm for 20 minutes to recover the supernatant, the protein concentration of the supernatant was quantified by BCA analysis. […]

[3] = tested on: premature senescent vascular endothelial cells (HUVEC) by doxorubicin; test: SAβG activity staining, doxorubicin-induced premature senescent HUVEC; format: cell-based, human; conditions: 100 nM, 4 days; compared to DMSO-treated group; p<0.01; FIG. 3A, 3B
Experimental: (§3) Each cell was treated in a serum-free culture solution containing doxorubicin (0.5 μM) for 4 hours. After washing the cells with a serum-free culture solution, the cells were cultured for 4 days in a culture solution containing 10% FBS, and then cellular aging was confirmed by measuring the level of senescence by staining with senescence-associated beta galactosidase.
(§4) After each sample was dissolved in DMSO, young cells, replicative senescent cells and senescent cells in which premature aging was induced by treating with doxorubicin were treated with 100 nM salinomycin, 100 nM rapamycin, 100 nM ABT263. After incubation for 4 days in a 37° C., 5% CO2 incubator, the degree of cell survival was confirmed by CCK-8 analysis, the degree of cellular aging was confirmed by senescence-associated β-galactosidase (SAβG) staining, p53 and p16 protein expression analysis.
(§5) The cells were washed with 1× phosphate buffer solution, and fixed with a phosphate buffer solution containing 3.7% (v/v) paraformaldehyde. After adding 1 mg/ml 5-bromo-4-chloro-3-indolyl-β-D-galactoside, 40 mM citric acid-sodium phosphate (pH 6.0), 5 mM potassium ferricyanide, 5 mM potassium ferrocyanide, 150 mM NaCl, and 2 mM MgCl2 solution, it was reacted at 37° C. for 18 hours. It was stained with eosin as a control stain and cells stained blue in the cytoplasm were identified using an optical microscope. […]

[4] = tested on: premature senescent renal tubular cells (HK2) by doxorubicin; test: SAβG activity staining, doxorubicin-induced premature senescent HK2 cells; format: cell-based, human; conditions: 100 nM, 4 days; compared to DMSO-treated group; FIG. 6A-6C
Experimental: as §3, §4, §5

[5] = tested on: premature senescent human fibroblasts induced by doxorubicin (HDF); test: CCK-8 cell survival, doxorubicin-induced premature senescent human fibroblasts; format: cell-based; conditions: 100 nM, 4 days; compared to DMSO-treated group; p<0.01; FIG. 1C
Experimental: as §3, §4
Young cells (1×10^3 cells/well) or senescent cells (2×10^3 cells/well) were dispensed into a 96-well plate, and cultured overnight in a 37° C., 5% CO2 incubator. Salinomycin, ABT263 and rapamycin were treated at each concentration, and then incubated for 4 days in a 37° C., 5% CO2 incubator. […] Then, the absorbance was measured at 450 nm using a Microplate reader.
The degree of cell survival was expressed as a relative value for the absorbance of the control group treated with only DMSO as 100%. […]

## CC[C@@H](C(=O)[C@@H](C)[C@@H](O)[C@H](C)[C@@H]1O[C@@H]([C@@H](CC)C(=O)O)CC[C@@H]1C)[C@H]1O[C@]2(C=C[C@@H](O)[C@]3(CC[C@@](C)([C@H]4CC[C@](O)(CC)[C@H](C)O4)O3)O2)[C@H](C)C[C@@H]1C [salinomycin]
[1]
  cell survival (CCK-8): did not affect
[2]
  expression of p16 protein (Western blot): reduced
  expression of p53 protein (Western blot): reduced
[3]
  SAβG activity staining: significantly decreased
[4]
  SaβG activity: no change
[5]
  cell survival (CCK-8): decreased significantly
